Laboratory results reported in patent US20240115662A1, “METHODS OF TREATING HYPOGONADOTROPIC HYPOGONADISM AND COGNITION IMPAIRMENT FOLLOWING A TRAUMATIC BRAIN INJURY” (WISCONSIN ALUMNI RESEARCH FOUNDATION, priority 2021, published 2024).

Assays:
[1] = tested on: human embryonic stem cells (hESC); assay: hESC proliferation, trypan blue assay; type: cell-based; conditions: 6 d; E2 (10 nM), P4 (2 μM); compared to untreated control cells
Experimental: We therefore tested whether P4 was essential for the induction of NPC from hESC. hESC were treated with P4, E2 (which upregulates P4 receptor (PR) expression), or a combination of E2+P4.

hESC = hESC differentiation into neuroectoderm / neural precursor cells (nestin immunoblot, rosettes); type: cell-based, human
Experimental: FIG. 5A. hESC were grown in TESR1 media-Li in the presence of E2 (10 nM), P4 (2 μM) or E2 (10 nM)+P4 (2 μM) for 6 d and cell proliferation measured using the trypan blue assay. Results are expressed as mean±SEM, n=3 (*p<0.05, **p<0.005 compared to 6 d control). FIG. 5B. Equal amounts of protein from cell lysates of hESC treated for 9 d as described above were analyzed by immunoblot using a monoclonal antibody against nestin (clone 10C2; Chemicon, CA, USA). FIG. 5C. hESC were cultured for 4 days, enzymatically lifted and placed into EB media (containing serum) and rocked gently for an additional 4 days prior to being placed in one of two neural induction medias for an additional 11 days, where P4 was either absence or present. During this transition from EB to rosettes, colony structures treated with P4 also were treated with a Progesterone Receptor (PR) antagonist (RU-486; 20 μM) for 11 days. At 19 day, morphological observation and molecular analysis were performed. (i) Control structure, a minimum of three rosette structures were observed inside the cystic cavity (arrows). (ii) hESC structure in the absence of P4 (no rosettes) (iii) PR antagonist treated rosettes (no rosettes; RU-486, 20 μM). FIG. 5D. Equal amounts of protein from cell lysates of above structures were analyzed by immunoblot for nestin.
These structures are predominantly composed of NPCs (NSCs) akin to those that form the neural tube and can be further differentiated into various neural lineages. To understand which hormonal signals regulate the specification of hESC into NSCs, we closely examined the composition of the medias and supplements that had been developed by trial and error for the maintenance of hESC, and their differentiation first into embryoid bodies (EBs) and then into NPC. We identified P4 in the B27 supplement as being necessary and sufficient for the survival and differentiation of late embryonic neurons in vitro (E18 primary hippocampal/cortical/striatal neurons). […]

[2] = tested on: male Sprague Dawley rats with craniectomy or controlled cortical impact (CCI) injury; assay: Plasma steroid concentrations after craniectomy (Sham) or CCI injury, hCG with or without RU-486; type: in vivo, rat
Experimental: Male Sprague Dawley (SD) rats (n=58, 5-6-months old) were acquired from Harlan Laboratories Inc. (Madison, WI) and acclimated to the environment over 2 days. Rats were then weighed and handled for no less than 5 min each for 5 consecutive days and daily thereafter while being housed, fed and maintained on a 12-hour reverse light/dark cycle. The Institutional Animal Care and Use Committee (Animal Component of Research Protocol) at the William S. Middleton Veterans Administration Hospital approved the procedures used in this study and the research was conducted in an AAALAC-approved facility. Experimenters were blinded as to the identity of the animals throughout injections, blood collections, and body weight and hormone data analyses.
All surgical procedures were carried out under isoflurane gas anesthesia (5% for induction; 1.5-3.0% for maintenance, craniectomy ˜15-30 min duration; craniectomy+CCI injury ˜25-45 min duration). An anesthesia chamber was used for induction and a nose cone was used for maintenance.
Anesthetized rats were mounted in a Kopf stereotaxic device (Model 900; Tujunga, CA), where the animal's head was held in place by non-traumatic ear bars and a bite bar. Anesthesia was maintained by nose cone while the head was shaved and sterilized with 70% ethanol and Betadine™ (Purdue Products L.P., Stamford, CT) antiseptic solution. Throughout surgery anesthesia levels were monitored closely and were frequently adjusted as need, based on heart rate, respiration rate and oxygen saturation. A homeothermic blanket control unit (Harvard Apparatus, Holliston, MA) was used to monitor body temperature and to prevent hypothermia throughout surgery.
Under aseptic conditions, the cranium and its bony landmarks including bregma (β) and lambda (λ) were exposed by making a midline incision along the scalp into the skin and fascia covering the skull. A 6 mm diameter craniectomy was centered on the midline at 2.5 mm anterior to β. The cortical impact was made at 2.5 mm anterior to β over the midline of the medial frontal cortex with an Impact One™ Stereotaxic CCI instrument (Leica, Buffalo Grove, IL), using a 5 mm impactor (bit size), traveling at 2.25 m/s (velocity), extending 3 mm below the cortical surface (impact depth) for 100 ms (dwell time). Sham-injured groups received the same surgical procedures up to and including craniectomy but no CCI injury. After surgery, the rats were placed on a heating pad, monitored closely and upon awakening were tested 30 min later for righting reflex to assess any immediate effects of craniectomy or CCI injury on righting ability, and then returned to their home cages.
Baseline blood draws were collected from all animals. […] Pregnyl® is a highly purified pyrogen-free preparation obtained from the urine of pregnant females. Each vial contains 10,000 USP units of sterile dried powder with 5 mg monobasic sodium phosphate and 4.4 mg dibasic sodium phosphate that is diluted in solvent containing water, 0.56% sodium chloride and 0.9% benzyl alcohol (www.drugs.com/pro/pregnyl.html).
Rats were anesthetized (between 9:00 a.m.-12:00 noon) and their tails placed in a 200 mL beaker filled with warm water (≤44° C.) for 5 min. The tail was clean with 70% alcohol, the minimal amount of the tail tip snipped with a blade, and/or the wound reopened by removal of the scab for subsequent bleeds, and ˜1 mL of whole blood was collected directly into EDTA tubes at baseline (PID-10) and at PID, 1, 11, 19 and 29. […] Animals were injected with Lactate Ringers solution (5 mL) for fluid resuscitation. At the terminal bleed (day 29), blood also was collected via heart puncture. Collected blood was immediately centrifuged at 4,000 g for 10-20 min and the plasma aliquoted into Eppendorf tubes for storage at −80° C.

Molecule: C[C@]12CC[C@@H]3c4ccc(O)cc4CC[C@H]3[C@@H]1CC[C@@H]2O [E2, estradiol]
- decrease in rate of hESC proliferation [1]: 16%

Molecule: CC(=O)[C@H]1CC[C@H]2[C@@H]3CCC4=CC(=O)CC[C@]4(C)[C@H]3CC[C@]12C [P4, progesterone]
- decrease in rate of hESC proliferation [1]: 29%
- nestin expression (immunoblot) (hESC; hESC treated for 9 d, E2 (10 nM), P4 (2 μM)): increased the neuroectodermal marker nestin

Molecule: 11β-[p-(Dimethylamino)phenyl]-17α-(1-propynyl)estra-4,9-dien-17β-ol-3-one [RU-486]
- plasma P4 concentration ([2]; CCI injured animals with RU-486 pretreatment, PID 1): 40.9 ± 10.0 ng/mL
- plasma T concentration ([2]; CCI injured animals with RU-486 pretreatment, PID 11): 4.5 ± 1.5 ng/mL
- plasma T concentration ([2]; CCI injured animals with RU-486 pretreatment, PID 19): 3.1 ± 1.1 ng/mL
- effect on circulating 11-DOC and corticosterone ([2]; CCI injured animals, RU486 pretreatment): no significant effects
- effect on corticosterone ([2]; Sham surgery, saline and hCG-treated animals, RU486 pretreatment (except PID 19 in Sham+hCG)): prevented Sham surgery-induced decreases in corticosterone through PID 29
- circulating 11-DOC ([2]; Sham+hCG rats with RU486 pretreatment (40 mg/kg i.p.), PID 1): 282.4 ± 28.0 ng/mL
- plasma P4 concentration ([2]; Sham+hCG with RU486 pretreatment, PID 29): 8.5 ± 4.5 ng/mL
- effect on 11-DOC ([2]; Sham+saline with RU486 pretreatment): preventing the Sham+saline treatment-induced decrease in 11-DOC through PID29
- nestin (immunoblot) in PR-antagonist treated structures (hESC; RU-486 20 μM): absence of nestin
- neuroectodermal rosette formation (hESC; RU-486 20 μM for 11 days, in presence of P4): No rosettes were detected
